# Data from patent US8772499B2, “TRPV3 modulators” (AbbVie Inc., priority 2011, dated 2014).
# Where two headings read alike, the source gives them in different places.
# Assays:
# human TRPV3 = target: T1, human TRPV3 (Homo sapiens, UniProt Q8NET8); test: In vitro antagonism of recombinant human TRPV3 activation (FLIPR Tetra calcium assay); assay type: cell-based; conditions: HEK293 cells stably expressing human TRPV3, agonist 2-APB at 80 μM
# T1 construct: expressed in transfected cells
# T1 sequence (Q8NET8 1-790): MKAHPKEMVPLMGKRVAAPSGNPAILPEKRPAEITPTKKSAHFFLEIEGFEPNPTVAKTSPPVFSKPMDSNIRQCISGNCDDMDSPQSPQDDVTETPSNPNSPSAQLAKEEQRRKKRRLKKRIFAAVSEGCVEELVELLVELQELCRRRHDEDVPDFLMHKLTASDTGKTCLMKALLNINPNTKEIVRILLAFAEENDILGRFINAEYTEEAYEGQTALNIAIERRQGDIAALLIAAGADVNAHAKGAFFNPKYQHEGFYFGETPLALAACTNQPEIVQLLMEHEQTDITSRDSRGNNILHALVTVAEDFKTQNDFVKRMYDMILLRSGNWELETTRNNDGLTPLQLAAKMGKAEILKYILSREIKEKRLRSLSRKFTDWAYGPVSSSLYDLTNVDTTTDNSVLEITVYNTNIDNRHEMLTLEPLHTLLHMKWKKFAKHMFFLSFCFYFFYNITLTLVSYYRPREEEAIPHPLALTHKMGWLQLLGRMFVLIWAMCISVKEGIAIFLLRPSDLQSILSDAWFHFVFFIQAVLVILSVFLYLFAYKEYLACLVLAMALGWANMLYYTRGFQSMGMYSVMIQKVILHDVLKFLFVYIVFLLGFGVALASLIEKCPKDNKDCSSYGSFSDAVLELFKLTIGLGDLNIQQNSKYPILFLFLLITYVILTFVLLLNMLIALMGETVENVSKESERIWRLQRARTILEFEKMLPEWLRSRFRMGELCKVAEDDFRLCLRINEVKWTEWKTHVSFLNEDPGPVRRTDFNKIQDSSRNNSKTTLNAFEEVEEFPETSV
# How it was run: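 Calcium flux read over a 10 min run: compound added at 10 s to Calcium-4-loaded human TRPV3-HEK293 cells, agonist 2-APB (80 μM, its EC80) after 3 min. IC50 derived from peak-minus-baseline signal as percentage of uninhibited 2-APB response, typically averaged over at least two runs.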
# [1] = In vitro human microsomal stability assay; assay type: in vitro ADME
# How it was run: (§1)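 Metabolic stability was followed in NADPH-supplemented incubations at 37° C., using microsomes prepared from human liver or from Sprague-Dawley rat liver.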
# [2] = In vitro rat microsomal stability assay; assay type: in vitro ADME, rat (Sprague-Dawley)
# How it was run: as §1
# [3] = actual measured value shown parenthetically, in most cases average of at least two runs, read-out: IC50
# [4] = human, microsomes, 0.5 h, 0.5 μM, pH 7.4
# [5] = Sprague-Dawley, rat, microsomes, 0.5 h, 0.5 μM, pH 7.4
# [6] = human liver microsomes, 0.5 μM substrate, 0.25 mg/mL microsomal protein, pH 7.4, 37° C., NADPH, 30 minutes
# [7] = rat liver microsomes (Sprague-Dawley), 0.5 μM substrate, 0.25 mg/mL microsomal protein, pH 7.4, 37° C., NADPH, 30 minutes
# [8] = reported range, read-out: IC50 (range class)
SMILES,IC50 (human TRPV3; [3]),"HUMAN MICROSOMAL STABILITY (% REMAINING AFTER 30 MINUTES) [1, 4]","RAT MICROSOMAL STABILITY (% REMAINING AFTER 30 MINUTES) [2, 5]",IC50 (human TRPV3; [8]),"HUMAN MICROSOMAL STABILITY (% REMAINING AFTER 30 MINUTES) [1, 6]","RAT MICROSOMAL STABILITY (% REMAINING AFTER 30 MINUTES) [2, 7]"
"CC(=O)O[C@H](c1ccccn1)C1(c2ccc(OC(F)(F)F)cc2)CCC1 [Example 288, (S)-pyridin-2-yl{1-[4-(trifluoromethoxy)phenyl]cyclobutyl}methyl acetate]",14.6 µM,<0.01%,<0.01%,–,–,–
"N[C@H]1CCC[C@@H]1[C@H](O)C1(c2ccc(OC(F)(F)F)cc2)CCC1 [Example 222, (S)-[(1S,2S)-2-aminocyclopentyl]{1-[4-(trifluoromethoxy)phenyl]-cyclobutyl}methanol]",2.35 µM,>85%,59%,–,–,–
"OC(c1ccccn1)C1(c2ccc(F)c(F)c2)CCCO1 (single isomer, unassigned) [Example 109, (syn)-[2-(3,4-difluorophenyl)tetrahydrofuran-2-yl](pyridin-2-yl)methanol]",5.81 µM,45%,0.74%,–,–,–
"CN1CCC(c2ccccc2OC(F)(F)F)(C(O)c2ccccn2)CC1 (stereo not shown) [Example 149, {1-methyl-4-[2-(trifluoromethoxy)phenyl]piperidin-4-yl}(pyridin-2-yl)-methanol]",6.2 µM,–,–,–,>85%,62%
"CN1CCC(c2cccc(OC(F)(F)F)c2)(C(O)c2ccccn2)CC1 (stereo not shown) [Example 146, {1-methyl-4-[3-(trifluoromethoxy)phenyl]piperidin-4-yl}(pyridin-2-yl)-methanol]",12.8 µM,–,–,–,84%,8.9%
"OC(C1CCCc2cccnc21)C1(c2ccccc2C(F)(F)F)CCC1 (stereo not drawn) [Example 195, (anti)-5,6,7,8-tetrahydroquinolin-8-yl{1-[2-(trifluoromethyl)phenyl]-cyclobutyl}methanol]",> 20 µM,<0.01%,<0.01%,> 20 µM,–,–
"OC(c1ccccn1)C1(c2ccc(C(F)(F)F)cc2)CNC1 (stereo not shown) [Example 152, pyridin-2-yl{3-[4-(trifluoromethyl)phenyl]azetidin-3-yl}methanol]",19.7 µM,>85%,>85%,–,–,–
"OC(c1ccccn1)C1(C2(O)CCOC2)CCC1 (stereo not shown) [Example 246, 3-{1-[hydroxy(pyridin-2-yl)methyl]cyclobutyl}tetrahydrofuran-3-ol]",> 20 µM,71%,59%,> 20 µM,–,–
"OC(c1ccccn1)C1(c2ccc(Cl)c(Cl)c2)CCNCC1 (stereo not shown) [Example 140, [4-(3,4-dichlorophenyl)piperidin-4-yl](pyridin-2-yl)methanol]",> 20 µM,>85%,37%,> 20 µM,–,–
"OC(c1ccccn1)C1(c2ccc(C(F)(F)F)cc2)CCNCC1 (stereo not shown) [Example 147, pyridin-2-yl{4-[4-(trifluoromethyl)phenyl]piperidin-4-yl}methanol]",> 20 µM,>85%,79%,> 20 µM,–,–
"OC(C1CCc2cccnc21)C1(c2ccc(F)c(F)c2)CCC1 (stereo not drawn) [Example 172, (syn)-[1-(3,4-difluorophenyl)cyclobutyl][6,7-dihydro-5H-cyclopenta[b]-pyridin-7-yl]methanol]",> 20 µM,2.4%,<0.01%,> 20 µM,–,–
"OC(c1ccccn1)C1(c2cccc(OC(F)(F)F)c2)CCOCC1 (stereo not shown) [Example 66, pyridin-2-yl{4-[3-(trifluoromethoxy)phenyl]tetrahydro-2H-pyran-4-yl}-methanol]",1.52 µM,31%,23%,–,–,–
"OC(C1CCc2cccnc21)C1(c2ccc(OC(F)(F)F)cc2)CCC1 (stereo not drawn) [Example 175, (anti)-6,7-dihydro-5H-cyclopenta[b]pyridin-7-yl{1-[4-(trifluoromethoxy)-phenyl]cyclobutyl}methanol]",> 20 µM,29%,<0.01%,> 20 µM,–,–
"OC(C1CCCc2cccnc21)C1(c2ccc(Cl)c(Cl)c2)CCC1 (single isomer, unassigned) [Example 182, (syn)-[1-(3,4-dichlorophenyl)cyclobutyl][5,6,7,8-tetrahydroquinolin-8-yl]-methanol]",> 20 µM,<0.01%,<0.01%,> 20 µM,–,–

# Molecules with a lower IC50 (human TRPV3; [3]), results first:
IC50 (human TRPV3; [3]),"HUMAN MICROSOMAL STABILITY (% REMAINING AFTER 30 MINUTES) [1, 4]","RAT MICROSOMAL STABILITY (% REMAINING AFTER 30 MINUTES) [2, 5]",IC50 (human TRPV3; [8]),SMILES,"HUMAN MICROSOMAL STABILITY (% REMAINING AFTER 30 MINUTES) [1, 6]","RAT MICROSOMAL STABILITY (% REMAINING AFTER 30 MINUTES) [2, 7]"
1.4 µM,<0.01%,<0.01%,–,"OC(C1CCCc2cccnc21)C1(c2ccc(C(F)(F)F)cc2)CCC1 (single isomer, unassigned) [Example 183, (anti)-5,6,7,8-tetrahydroquinolin-8-yl{1-[4-(trifluoromethyl)phenyl]-cyclobutyl}methanol]",–,–
1.27 µM,0.01%,<0.01%,–,"OC(c1ccccn1)C1(C2=CCCC(C(F)(F)F)C2)CCC1 (stereo not shown) [Example 261, pyridin-2-yl{1-[5-(trifluoromethyl)cyclohex-1-en-1-yl]cyclobutyl}methanol]",–,–
0.83 µM,41%,18%,–,"OC(c1ccccn1)C1(c2ccc(Cl)c(C(F)(F)F)c2)CC(F)(F)C1 (stereo not shown) [Example 138, {1-[4-chloro-3-(trifluoromethyl)phenyl]-3,3-difluorocyclobutyl}(pyridin-2-yl)methanol]",–,–
0.82 µM,21%,7.7%,–,"O[C@H](c1ccccn1)C1(c2cc(C(F)(F)F)ccn2)CC(F)(F)C1 [Example 126, (S)-{3,3-difluoro-1-[4-(trifluoromethyl)pyridin-2-yl]cyclobutyl}(pyridin-2-yl)methanol]",–,–
0.75 µM,41%,26%,–,"OC(c1ccccn1)C1(c2ccc(F)c(C(F)(F)F)c2)CC(F)(F)C1 (stereo not shown) [Example 139, {3,3-difluoro-1-[4-fluoro-3-(trifluoromethyl)phenyl]cyclobutyl}(pyridin-2-yl)methanol]",–,–
0.71 µM,50%,38%,–,"O[C@H](c1ccccn1)C1(c2ccnc(C(F)(F)F)c2)CCC1 [Example 240, (S)-pyridin-2-yl{1-[2-(trifluoromethyl)pyridin-4-yl]cyclobutyl}methanol]",–,–
0.65 µM,39%,0.47%,–,"OC(CC1(c2ccc(OC(F)(F)F)cc2)CCC1)c1ccccn1 (stereo not shown) [Example 76, 1-(pyridin-2-yl)-2-{1-[4-(trifluoromethoxy)phenyl]cyclobutyl}ethanol]",–,–
0.53 µM,80%,32%,–,"OC1CC(c2cncc(C(F)(F)F)c2)(C(O)c2ccccn2)C1 [Example 303, cis-3-[(S)-hydroxy(pyridin-2-yl)methyl]-3-[5-(trifluoromethyl)pyridin-3-yl]cyclobutanol]",–,–
0.35 µM,1.2%,2.3%,–,"OC(c1ccccn1)C1(c2cccc(C(F)(F)F)c2)CCC1 (stereo not shown) [Example 6, pyridin-2-yl{1-[3-(trifluoromethyl)phenyl]cyclobutyl}methanol]",–,–
0.23 µM,56%,59%,–,"O[C@H](c1ccccn1)[C@]1(c2cccc(C(F)(F)F)c2)C[C@@H](O)C1 [Example 264, trans-3-[(S)-hydroxy(pyridin-2-yl)methyl]-3-[3-(trifluoromethyl)phenyl]-cyclobutanol]",–,–
